Laboratory results: PubChem BioAssay AID588620 (NMMLSC, 2011)
Activity calls are given as the source filed them.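 Rule for the calls: active = fitted half-maximal concentration below 30 µM for cell fluorescence in pump-free yeast, so likely self-fluorescent; inactive = the rest.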

Assay: concentration-dependent intrinsic compound fluorescence, S. cerevisiae AD/pABC3, flow cytometry, Cherry Pick1 hits, artefact control for antifungal efflux pump inhibitor project, dose response (AID 588620);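 note: red emission of unstained cells excited at 488 nm measured in PE-Texas Red channel; cell median fluorescence as percent of DMSO wells so 100% equals vehicle baseline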
Settings: S. cerevisiae AD/pABC3 compound autofluorescence, flow cytometry; at 33.1 µM (top of the series)

Structure (SMILES) | fluorescence response, % of control
O=C(NC(=S)Nc1ccc2[nH]c(=O)[nH]c2c1)c1cncc(Br)c1 | 102% (inactive)
O=C(c1ccoc1)N1CCC2(CC1)Oc1ccc(Cl)cc1C(=O)C21CC(c2ccc(Cl)cc2)=NO1 (stereo unspecified) | 119% (inactive)
O=C(COC(=O)c1c(Cl)cccc1Cl)NCC1CCCO1 (stereo unspecified) | 106% (inactive)
Cc1ccc(/C=c2\sc3nc(-c4cccs4)nn3c2=O)o1 | 118% (inactive)
COc1ccc(Cn2c(-c3ccccc3)nc3c(c(=O)c4ccccc4n3C)c2=O)cc1 | 102% (inactive)
Cc1ccc(C)c(Cn2nnc3c(=O)[nH]c(C4CCN(S(=O)(=O)c5ccc(S(=O)(=O)N(C)C)cc5)CC4)nc32)c1 | 119% (inactive)
O=C(CSc1nc2nc3c(cc2c(=O)n1-c1ccccc1)CCCC3)Nc1cccc2ccccc12 | 101% (inactive)
COCCCn1c(=S)[nH]c2ccc(N3CCOCC3)cc2c1=O | 105% (inactive)
O=C(C1CCC1)N1CCc2cc(S(=O)(=O)Nc3ccc4c(c3)OCCO4)ccc21 | 116% (inactive)
COc1cccc(-c2sc3ccc(OC)cc3c2-c2ccc(OCCN3CCCCC3)cc2)c1 | 102% (inactive)
COc1ccc2sc(-c3ccccc3OC)c(-c3ccc(OCCN(C)C)cc3)c2c1 | 118% (inactive)
O=C1c2cc(Cl)ccc2OC2(CCNCC2)C12CC(c1ccccc1)=NO2 (stereo unspecified) | 107% (inactive)
O=C(/C=C/c1cccs1)N1CCC2(CC1)Oc1ccc(F)cc1C(=O)C21CC(c2ccccc2)=NO1 (stereo unspecified) | 96.4% (inactive)
COc1cccc(-c2sc3cc(OC)c(OC)cc3c2-c2ccc(OCCN3CCCCC3)cc2)c1 | 112% (inactive)
CC(C)n1cc(/C=N/NC(=O)COc2cccc3cccnc23)c2ccccc21 | 91.7% (inactive)
CC(C)(C)C1CCC(OC(=O)C[N+]2(C)CCCC2)CC1 (stereo unspecified) | 109% (inactive)
c1ccc2c(c1)Cc1cc(CN3CCOCC3)ccc1-2 | 109% (inactive)
NC1=NC[C@H](Cc2ccc(O)cc2)N1CCCCC1CCCCC1 | 92.2% (inactive)
COc1ccc2c(-c3ccc(OCCN4CCCCC4)cc3)c(-c3ccccc3OC)sc2c1 | 102% (inactive)
COc1ccc(Cn2nnc3c(=O)[nH]c(C4CCN(S(=O)(=O)c5ccc(C)cc5)CC4)nc32)cc1 | 95.7% (inactive)
Cc1cnc(C(=O)NC2CC(C)(C)Cc3c2cnn3-c2ccccc2)cn1 (stereo unspecified) | 98.5% (inactive)

Structure (SMILES) | fluorescence response, % of control
Cc1cccc(C)c1-n1c(SCC(=O)N2CC(=O)Nc3ccccc32)nc2ccccc2c1=O | 118% (inactive)
O=C1/C(=C\c2ccc(-c3ccccc3Cl)o2)SC(=S)N1CC1CCCO1 (stereo unspecified) | 150% (inactive)
COc1ccc2nc(NC(=O)c3ccoc3C)sc2c1 | 117% (inactive)
CC1(C)CC2(CC(c3cccs3)c3cc(Cl)c(O)cc3O2)NC(=S)N1 (stereo unspecified) | 113% (inactive)
COc1ccc(-c2ccc3c(c2)S(=O)(=O)c2cccc(C(=O)NC4CCCCC4)c2C3=O)cc1OC | 106% (inactive)
COc1ccc(-c2sc3cc(OC)ccc3c2-c2ccc(OCCN3CCOCC3)cc2)cc1 | 153% (inactive)
CC(C)c1ccc(S(=O)(=O)Nc2ccc(O)c(Sc3ncn[nH]3)c2)cc1 | 151% (inactive)
Nc1ncc2c(n1)-c1cc(Cl)ccc1SC2 | 102% (inactive)
CCC(=O)N1CCC2(CC1)Oc1ccc(Cl)cc1C(=O)C21CC(c2ccc(Cl)cc2)=NO1 (stereo unspecified) | 89.8% (inactive)
COCCOC(=O)c1c(C)oc2ccc(NS(=O)(=O)c3ccc(F)cc3)cc12 | 90.9% (inactive)
CC(C)=C1C2CCC1C1C(=O)N(c3nc(-c4ccc(C(C)C)cc4)c(C)s3)C(=O)C21 (stereo unspecified) | 111% (inactive)
COc1ccc2c(c1)C(=O)N1[C@H]3c4cc(Cl)ccc4OC[C@@H]3[C@H](c3ccccc3)[C@]1(C)C(=O)N2 | 98.5% (inactive)
COCC1CCN(C(=O)c2cc(COc3ccc(OC)c4ccccc34)on2)C1 (stereo unspecified) | 82.6% (inactive)
O=c1[nH]c(C2CCN(S(=O)(=O)c3ccccc3C(F)(F)F)CC2)nc2c1nnn2Cc1cccc(F)c1 | 83.7% (inactive)
NC(=O)c1nc(-c2ccco2)nc2c1[nH]c(=O)n2-c1ccc(Cl)c(Cl)c1 | 112% (inactive)
O=C(CSc1nnc(Cc2cccs2)n1Cc1ccco1)Nc1ccc(Br)cc1 | 86% (inactive)
O=C(O)CCN1C(=O)/C(=C\c2ccc(-c3nc4ccccc4s3)o2)SC1=S | 102% (inactive)
CSc1ccccc1NC(=O)c1cc(-c2ccc3c(c2)OCO3)on1 | 101% (inactive)
Cc1ccc(CNC(=O)C(=O)NCC2OCCN2S(=O)(=O)c2ccc(Br)cc2)cc1 (stereo unspecified) | 88.1% (inactive)
O=C(Cn1c(COc2ccccc2)nc2ccccc21)Nc1cc(Cl)c(Cl)cc1Cl | 87.6% (inactive)
CCOC(=O)c1sc2nc3c(SCC(=O)O)cc(C(=O)c4ccccc4O)cn3c(=O)c2c1C | 132% (inactive)

Structure (SMILES) | fluorescence response, % of control
COc1ccc2cc(C#N)c(N3CCN(Cc4nnnn4CCC(C)C)CC3)nc2c1 | 113% (inactive)
O=C(Nc1ccccc1C(=O)O)c1ccc(NC(=O)c2ccc(Br)o2)cc1 | 107% (inactive)
C[C@H]1CN([C@@H](C)CO)C(=O)c2cc(NC(=O)Nc3cccc4ccccc34)ccc2O[C@@H]1CN(C)Cc1ccc(-c2ccccc2)cc1 | 102% (inactive)
O=C(CSc1nnc(Cc2cccs2)n1Cc1ccco1)Nc1cccc(Cl)c1 | 128% (inactive)
O=c1[nH]c(C2CCN(S(=O)(=O)c3ccccc3C(F)(F)F)CC2)nc2c1nnn2Cc1ccccc1 | 92.4% (inactive)
O=C1C(Cc2cccc([N+](=O)[O-])c2)SC(=Nc2ccccc2)N1c1ccccc1 (stereo unspecified) | 116% (inactive)
CC(C)C(=O)N1CCC2(CC1)Oc1ccc(F)cc1C(=O)C21CC(c2ccc(Cl)cc2)=NO1 (stereo unspecified) | 105% (inactive)
OCCN1CCN(CC/C=C2/c3ccccc3Sc3ccc(C(F)(F)F)cc32)CC1 | 332% (inactive)
Cc1ccc(-c2cc(C(=O)Nc3ccc(S(=O)(=O)Nc4onc(C)c4C)cc3)c3ccccc3n2)cc1 | 88.3% (inactive)
COC(=O)c1ccc(S(=O)(=O)NCc2ccc(OC)cc2)n1C | 96.9% (inactive)
COc1ccc(-c2sc3ccccc3c2-c2ccc(OCCN(C)C)cc2)cc1 | 112% (inactive)
Cc1ccc(Cl)cc1N1CCN(c2cccc[n+]2C)CC1 | 95.1% (inactive)
Cc1c(NC(=O)c2ncn[nH]2)cccc1-c1nc2ccccc2s1 | 109% (inactive)
O=C(Nc1ccnc(-c2cccnc2)n1)c1cccc(Cl)c1Cl | 104% (inactive)
CCCCCCCCCCOC(=O)Cn1c(COc2cccc(C)c2)[n+](C)c2ccccc21 | 105% (inactive)
Cc1ccc(O)c(C(=O)c2cnc3c(c2)CN(CCC(C)C)C(=O)N3)c1 | 102% (inactive)
CCO[C@@H]1OC(C(=O)Nc2ccccc2)=C[C@H](c2ccc(Br)cc2)[C@H]1CCCO | 102% (inactive)
O=C1C(Cc2ccccc2)Nc2ncnc(N3CCN(c4ccccc4)CC3)c2N1Cc1ccccc1 (stereo unspecified) | 105% (inactive)
C[C@@]12C(=O)Nc3ccc(Cl)cc3C(=O)N1[C@H]1c3cc(Cl)ccc3OC[C@@H]1[C@@H]2c1ccccc1 | 103% (inactive)
COc1ccc2c(c1)OC[C@H]1[C@H]2N2C(=O)c3ccc(C)cc3NC(=O)[C@@]2(C)[C@H]1c1ccccc1 | 106% (inactive)
Cc1ccc(CSC2=Nc3ccccc3C3=NC(CC(=O)NCc4ccco4)C(=O)N23)cc1 (stereo unspecified) | 89% (inactive)

Structure (SMILES) | fluorescence response, % of control
O=C1Nc2ccccc2/C1=C/c1cnc(-c2ccccc2)[nH]1 | 128% (inactive)
Cc1ccsc1-c1nc(C(N)=O)c2[nH]c(=O)n(-c3ccc(Cl)cc3)c2n1 | 102% (inactive)
COc1ccc(/C=C2\SC(=O)N(CCC(=O)Nc3ccccc3)C2=O)cc1OC | 99.1% (inactive)
COc1ccc(C2c3ccc4ccccc4c3Oc3ncn(CCN4CCOCC4)c(=N)c32)cc1 (stereo unspecified) | 135% (inactive)
COc1ccc(/C=c2\s/c(=C/C(=O)c3ccc(C)cc3)[nH]c2=O)c(OC)c1 | 98.7% (inactive)
O=[N+]([O-])c1cnc2ccc3ccccc3c2c1 | 122% (inactive)
CC(C)c1ccc(C(=O)NC(=S)Nc2ccc3[nH]c(=O)[nH]c3c2)cc1 | 158% (inactive)
COc1ccc2sc(-c3ccccc3OC)c(-c3ccc(OCCN4CCCC4)cc3)c2c1 | 114% (inactive)
NC(=O)c1nc(-c2cccs2)nc2c1[nH]c(=O)n2-c1ccc(F)cc1 | 93.5% (inactive)
COc1cc(/C=C2/CC/C(=C/c3ccc(O)c(OC)c3)C2=O)ccc1O | 347% (inactive)
COc1ccc(CCC(=O)NNC(=O)Cn2nc(C)cc2C)cc1 | 100% (inactive)
O=C(Nc1ccc(O)cc1C(=O)O)c1ccc(NC(=O)c2ccco2)cc1 | 92.4% (inactive)
Cc1ccc(CCNC(=O)CCCn2nc(C)c3c(C)n(-c4ccc(C)cc4)nc3c2=O)cc1 | 101% (inactive)
CCN1CCN(c2cc(SC(C)C)nc(-c3ccc(OC)cc3)n2)CC1 | 109% (inactive)
COc1ccc(NC(=O)Nc2cccc3c2O[C@H](CN(C)C(=O)Nc2ccc(OC)cc2)[C@@H](C)CN([C@H](C)CO)C3=O)cc1 | 86% (inactive)
Cc1ccc(S(=O)(=O)N2CCOCC2)cc1NC(=O)COC(=O)CNC(=O)c1ccccc1 | 102% (inactive)
COc1ccc(CC(=O)Nc2ccc(NC(=O)c3ccc(Br)cc3)cc2)cc1OC | 134% (inactive)
Nc1c(Cl)cc(C2=NCCn3nc4ccccc4c32)cc1Cl | 88.6% (inactive)
